Type in all cases: in vivo
The test system of one data set is Scirpus juncoides. Nature of the data set: Test Example 2: herbicidal activity, application during weed generation in submerged conditions (symbol B). Particulars: Table 23; application herbicide amount 320 g/ha; grade 0-5 by criteria of Test Example 1. An outline of the steps: (§1)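 Treatment timing was the one- to two-leaf stage, with diluted emulsifiable compound dropped onto the paddy water (depth 4 cm) over alluvial soil. All three species grew from a mixed sowing in a 25° C. to 30° C. greenhouse. Injury was judged by eye 3 weeks on.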

For another data set, the system named is Stellaria media. Briefly: Test Example 5: herbicidal effect by foliage application, plastic box (symbol P). To be noted: 320 g/ha, 3 weeks after application. An outline of the steps:
(§2)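 Visual herbicidal score, taken three weeks post-application, of seedlings sprayed on the foliage with water-diluted emulsion at a predetermined amount; plants were 14 days old, greenhouse-raised at 25° C. to 30° C.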

Data set [1] relates to Chenopodium album. Briefly: Test Example 4: herbicidal effect by soil treatment (symbol O). Particulars: application herbicide amount 320 g/ha. An outline of the steps:
(§3)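 Seeds were sown in sterilized diluvial soil, covered with about 1.5 cm of soil, and the soil surface was sprayed with a water-diluted emulsion of the compound at a predetermined rate. Plants grew in a greenhouse at 25° C. to 30° C.; effects were scored visually 3 weeks after application.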

The next data set relates to Monochoria vaginalis. Nature of the data set: Test Example 2: herbicidal activity, application during weed generation in submerged conditions (symbol C). Particulars: Table 23; application herbicide amount 320 g/ha; grade 0-5 by criteria of Test Example 1. The method, boiled down: as §1
Data set [2] concerns directly sowed rice plant. Nature of the data set: Test Example 3: effect on crop by foliage application, Wagner pot (symbol b). To be noted: application herbicide amount 320 g/ha. An outline of the steps:
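Wagner pot (1/10000 are), alluvial soil, submerged 0.1–0.5 cm; sown E. crus-galli var. crus-galli, L. chinensis, C. difformis, rice; greenhouse 25–30 °C.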

In data set [3] the test system is Chenopodium album. Nature of the data set: Test Example 5: herbicidal effect by foliage application, plastic box (symbol O). Particulars: 320 g/ha, 3 weeks after application. The method, boiled down:
as §2

Data set [4] concerns Apera spica-venti. Briefly: Test Example 4: herbicidal effect by soil treatment (symbol L). To be noted: application herbicide amount 320 g/ha. The method, boiled down: as §3
In data set [5] the test system is Apera spica-venti. Nature of the data set: Test Example 5: herbicidal effect by foliage application, plastic box (symbol L). Particulars: 320 g/ha, 3 weeks after application. An outline of the steps: as §2
The subject of data set [6] is Echinochloa crus-galli var. crus-galli. Briefly: Test Example 4: herbicidal effect by soil treatment (symbol H). Particulars: application herbicide amount 320 g/ha. An outline of the steps: as §3
For data set [7] the test system is unchanged. Nature of the data set: Test Example 3: herbicidal effect by foliage application, Wagner pot (symbol H). Particulars: application herbicide amount 320 g/ha. An outline of the steps: (§4)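 The compound, formulated as an emulsion and diluted with water to a predetermined rate, is applied uniformly to leaves of two-week-old seedlings growing in submerged alluvial soil at 25–30 °C. Rice is included. Each plant is assessed 3 weeks later using defined criteria.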

Another data set has as its system beet. Nature of the data set: Test Example 4: effect on crop by soil treatment (symbol f). Particulars: application herbicide amount 320 g/ha. An outline of the steps: (§5)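 Crop seeds, among them rice, wheat, beet and rapeseed, were sown in sterilized diluvial soil and covered with about 1.5 cm of soil. Boxes were kept in a greenhouse at 25° C. to 30° C. for plant growth.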

A further data set deals with transplanted rice plant. Nature of the data set: Test Example 1: effect on crop, application before weed generation in submerged conditions (symbol a). Particulars: application herbicide amount 320 g/ha. The method, boiled down: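 Alluvial soil pots flooded to 4 cm water, sown with Echinochloa oryzacola, Scirpus juncoides and Monochoria vaginalis, then transplanted with 2.5 leaf stage rice seedlings; pre-emergence application. Greenhouse 25° C. to 30° C.; scored 0–5 by herbicidal ratio 3 weeks after application.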

A further data set deals with Leptochloa chinensis. Nature of the data set: Test Example 3: herbicidal effect by foliage application, Wagner pot (symbol D). Particulars: application herbicide amount 320 g/ha. An outline of the steps:
as §4

In the next data set the test system is Cyperus difformis. Briefly: Test Example 3: herbicidal effect by foliage application, Wagner pot (symbol E). Particulars: application herbicide amount 320 g/ha. The method, boiled down:
as §4

Another data set relates to rapeseed. Briefly: Test Example 4: effect on crop by soil treatment (symbol g). Particulars: application herbicide amount 320 g/ha. The method, boiled down: as §5
The next data set has as its system Abutilon theophrasti. Briefly: Test Example 5: herbicidal effect by foliage application, plastic box (symbol M). Particulars: 320 g/ha, 3 weeks after application. An outline of the steps:
as §2

Each structure is given as a SMILES string.

As to `CON=C(C)CC1CC(O)=C(c2c(C)cc(Oc3ccccc3)cc2C)C1=O` (stereo not shown) [6-052], the “Herbicidal effect grade, B: Scirpus juncoides” value (“Herbicidal effect grade, B” below) in the data set with Scirpus juncoides is 0 (Herbicidal ratio of 5% or lower (almost no effect)). For the same compound, in the data set on Stellaria media, the “P: Stellaria media, herbicidal effect grade” value was 0 (Herbicidal ratio of 5% or lower (almost no effect)). The “O: Chenopodium album, herbicidal effect grade” value with Chenopodium album [1] and in the data set on Chenopodium album [3] was 0 (Herbicidal ratio of 5% or lower (almost no effect)) each time. Moreover, in the data set with Monochoria vaginalis, the “Herbicidal effect grade, C: Monochoria vaginalis” value (“Herbicidal effect grade, C” below) was 0 (Herbicidal ratio of 5% or lower (almost no effect)). Moreover, the “effect on crop b (directly sowed rice plant), grade 0-5” value (shortened to “effect on crop b”) in data set [2] is given as 5 (Herbicidal ratio of 90% or more (almost completely withered)). In addition, the “L: Apera spica-venti, herbicidal effect grade” value in the data set on Apera spica-venti [4] was 5 (Herbicidal ratio of 90% or more (almost completely withered)); in the data set on Apera spica-venti [5] it was 4 (Herbicidal ratio of 70% or higher and lower than 90%). Further, the “H: Echinochloa crus-galli var. crus-galli, herbicidal effect grade” value in data set [6] was 4 (Herbicidal ratio of 70% or higher and lower than 90%). Further, the “herbicidal effect on H (Echinochloa crus-galli var. crus-galli), grade 0-5” value (“herbicidal effect on H” below) in data set [7] is reported as 5 (Herbicidal ratio of 90% or more (almost completely withered)). For the same compound, in the data set with beet, the “f: beet, effect on crop grade” value is recorded as 0 (Herbicidal ratio of 5% or lower (almost no effect)). In addition, the “Effect grade on crop, a: transplanted rice plant” value (“Effect grade on crop” for short) in the data set with transplanted rice plant was 3 (Herbicidal ratio of 40% or higher and lower than 70%). The “herbicidal effect on D (Leptochloa chinensis), grade 0-5” value (“herbicidal effect on D” below) in the data set with Leptochloa chinensis was 5 (Herbicidal ratio of 90% or more (almost completely withered)). Besides, in the data set with Cyperus difformis, the “herbicidal effect on E, grade 0-5” value was 3 (Herbicidal ratio of 40% or higher and lower than 70%). Further, the “g: rapeseed, effect on crop grade” value with rapeseed was 3 (Herbicidal ratio of 40% or higher and lower than 70%). For the same compound, the “M: Abutilon theophrasti, herbicidal effect grade” value with Abutilon theophrasti is given as 0 (Herbicidal ratio of 5% or lower (almost no effect)).

With `CON=C(C)CC1CC(O)=C(c2c(C)cc(OC)cc2C)C1=O` (stereo not shown) [6-055], in the data set on Scirpus juncoides, the “Herbicidal effect grade, B” value was 2 (Herbicidal ratio of 20% or higher and lower than 40%). Also, the “P: Stellaria media, herbicidal effect (criteria of Test Example 1)” value with Stellaria media was 4 (Herbicidal ratio of 70% or higher and lower than 90%). Also, the “O: Chenopodium album, herbicidal effect grade” value in the data set with Chenopodium album [1] is on record as 0 (Herbicidal ratio of 5% or lower (almost no effect)). For the same compound, the “Herbicidal effect grade, C” value with Monochoria vaginalis is 0 (Herbicidal ratio of 5% or lower (almost no effect)). Also, the “effect on crop b” value in [2] is 5 (Herbicidal ratio of 90% or more (almost completely withered)). Also, the “O: Chenopodium album, herbicidal effect (criteria of Test Example 1)” value in the data set with Chenopodium album [3] is 3 (Herbicidal ratio of 40% or higher and lower than 70%). Further, in the data set with Apera spica-venti [4], the “L: Apera spica-venti, herbicidal effect grade” value was 5 (Herbicidal ratio of 90% or more (almost completely withered)). In addition, in the data set on Apera spica-venti [5], the “L: Apera spica-venti, herbicidal effect (criteria of Test Example 1)” value is reported as 5 (Herbicidal ratio of 90% or more (almost completely withered)). Further, the “H: Echinochloa crus-galli var. crus-galli, herbicidal effect grade” value in data set [6] is reported as 5 (Herbicidal ratio of 90% or more (almost completely withered)). For the same compound, the “herbicidal effect on H” value in data set [7] was 5 (Herbicidal ratio of 90% or more (almost completely withered)). The “f: beet, effect on crop grade” value in the data set on beet is 0 (Herbicidal ratio of 5% or lower (almost no effect)). Also, the “Effect grade on crop” value in the data set on transplanted rice plant is listed as 5 (Herbicidal ratio of 90% or more (almost completely withered)). Further, in the data set with Leptochloa chinensis, the “herbicidal effect on D” value is 5 (Herbicidal ratio of 90% or more (almost completely withered)). Also, the “herbicidal effect on E, grade 0-5” value in the data set with Cyperus difformis is on record as 5 (Herbicidal ratio of 90% or more (almost completely withered)). Moreover, the “g: rapeseed, effect on crop grade” value in the data set on rapeseed is given as 0 (Herbicidal ratio of 5% or lower (almost no effect)). Besides, the “M: Abutilon theophrasti, herbicidal effect (criteria of Test Example 1)” value in the data set with Abutilon theophrasti was 1 (Herbicidal ratio of 5% or higher and lower than 20%).

In the case of `CON=C(C)CC1CC(O)=C(c2c(C)cc(C(C)=NOC)cc2C)C1=O` (stereo not shown) [6-065], in the data set with Scirpus juncoides, the “Herbicidal effect grade, B” value is 1 (Herbicidal ratio of 5% or higher and lower than 20%). Besides, the “P: Stellaria media, herbicidal effect (criteria of Test Example 1)” value in the data set with Stellaria media is 3 (Herbicidal ratio of 40% or higher and lower than 70%). Besides, the “O: Chenopodium album, herbicidal effect grade” value in the data set with Chenopodium album [1] was 3 (Herbicidal ratio of 40% or higher and lower than 70%). In the data set on Monochoria vaginalis, the “Herbicidal effect grade, C” value was 2 (Herbicidal ratio of 20% or higher and lower than 40%). In addition, the “effect on crop b” value in [2] is listed as 5 (Herbicidal ratio of 90% or more (almost completely withered)). In the data set on Chenopodium album [3], the “O: Chenopodium album, herbicidal effect (criteria of Test Example 1)” value is 1 (Herbicidal ratio of 5% or higher and lower than 20%). The “L: Apera spica-venti, herbicidal effect grade” value in the data set on Apera spica-venti [4] was 5 (Herbicidal ratio of 90% or more (almost completely withered)). Also, in the data set on Apera spica-venti [5], the “L: Apera spica-venti, herbicidal effect (criteria of Test Example 1)” value is reported as 5 (Herbicidal ratio of 90% or more (almost completely withered)). Moreover, the “H: Echinochloa crus-galli var. crus-galli, herbicidal effect grade” value in data set [6] was 5 (Herbicidal ratio of 90% or more (almost completely withered)). In [7], the “herbicidal effect on H” value is reported as 5 (Herbicidal ratio of 90% or more (almost completely withered)). For the same compound, the “f: beet, effect on crop grade” value in the data set on beet was 2 (Herbicidal ratio of 20% or higher and lower than 40%). For the same compound, the “Effect grade on crop” value with transplanted rice plant was 4 (Herbicidal ratio of 70% or higher and lower than 90%). The “herbicidal effect on D” value with Leptochloa chinensis is 5 (Herbicidal ratio of 90% or more (almost completely withered)). The “herbicidal effect on E, grade 0-5” value with Cyperus difformis is listed as 5 (Herbicidal ratio of 90% or more (almost completely withered)). For the same compound, in the data set on rapeseed, the “g: rapeseed, effect on crop grade” value is 3 (Herbicidal ratio of 40% or higher and lower than 70%). Also, in the data set with Abutilon theophrasti, the “M: Abutilon theophrasti, herbicidal effect (criteria of Test Example 1)” value is 2 (Herbicidal ratio of 20% or higher and lower than 40%).

For the compound `CCc1cc(-c2ccc(Cl)cc2)cc(C)c1C1=C(O)CC(CC(C)=NOC)C1=O` (stereo not shown) [6-066], in the data set on Scirpus juncoides, the “Herbicidal effect grade, B” value was 0 (Herbicidal ratio of 5% or lower (almost no effect)). The “P: Stellaria media, herbicidal effect (criteria of Test Example 1)” value in the data set with Stellaria media is 3 (Herbicidal ratio of 40% or higher and lower than 70%). In the data set with Chenopodium album [1], the “O: Chenopodium album, herbicidal effect grade” value is recorded as 0 (Herbicidal ratio of 5% or lower (almost no effect)). The “Herbicidal effect grade, C” value with Monochoria vaginalis was 0 (Herbicidal ratio of 5% or lower (almost no effect)). In addition, in [2], the “effect on crop b” value was 5 (Herbicidal ratio of 90% or more (almost completely withered)). The “O: Chenopodium album, herbicidal effect (criteria of Test Example 1)” value with Chenopodium album [3] is 1 (Herbicidal ratio of 5% or higher and lower than 20%). Also, in the data set on Apera spica-venti [4], the “L: Apera spica-venti, herbicidal effect grade” value is reported as 5 (Herbicidal ratio of 90% or more (almost completely withered)). The “L: Apera spica-venti, herbicidal effect (criteria of Test Example 1)” value in the data set on Apera spica-venti [5] is on record as 5 (Herbicidal ratio of 90% or more (almost completely withered)). Moreover, the “H: Echinochloa crus-galli var. crus-galli, herbicidal effect grade” value in data set [6] is recorded as 5 (Herbicidal ratio of 90% or more (almost completely withered)). For the same compound, the “herbicidal effect on H” value in [7] is 5 (Herbicidal ratio of 90% or more (almost completely withered)). In the data set on beet, the “f: beet, effect on crop grade” value was 0 (Herbicidal ratio of 5% or lower (almost no effect)). In the data set with transplanted rice plant, the “Effect grade on crop” value is 3 (Herbicidal ratio of 40% or higher and lower than 70%). For the same compound, the “herbicidal effect on D” value in the data set with Leptochloa chinensis is reported as 5 (Herbicidal ratio of 90% or more (almost completely withered)). The “herbicidal effect on E, grade 0-5” value in the data set with Cyperus difformis is on record as 5 (Herbicidal ratio of 90% or more (almost completely withered)). The “g: rapeseed, effect on crop grade” value with rapeseed is 2 (Herbicidal ratio of 20% or higher and lower than 40%). Moreover, the “M: Abutilon theophrasti, herbicidal effect (criteria of Test Example 1)” value with Abutilon theophrasti was 3 (Herbicidal ratio of 40% or higher and lower than 70%).
